This test deals with RSV A2. Nature of the test: RSV inhibition (cytopathic effect inhibition) using Viral ToxGlo assay in HEp-2 cells. The class given is cell-based. The settings on record: human respiratory syncytial virus, RSV A2, MOI 0.5, HEp-2 cells, 72 h p.i. On the procedure: Protocol for Screening Antiviral Compounds for RSV Inhibition and Cytotoxicity Using Viral ToxGlo Assay
HEp-2 cells were maintained in Eagle's minimum essential medium (EMEM) with Earle's BSS adjusted to contain 2 mM L-glutamine, 10% fetal bovine serum, 100 U/ml penicillin and 100 μg/ml streptomycin. For the purposes of the screening assay they were grown to 90% confluency, trypsinized and recovered. The trypsin was neutralised with cell culture media and cells were centrifuged at 150×g for 5 minutes before discarding the supernatant and resuspending cell pellet in assay media (EMEM with Earle's BSS adjusted to contain 2 mM L-glutamine, 2% fetal bovine serum and 100 U/ml penicillin and 100 μg/ml streptomycin). The cells were seeded into white clear-bottomed cell culture plates at a density of 1.5×10^4 cells/well in 50 μl and 4×10^3 cells/well in 25 μl for 96 well plates and 384 well plates respectively. For the media/background control column assay media only was added. Cell plates were placed in a humid chamber and incubated overnight at 37° C./5% CO2. After overnight incubation cells were checked for confluency and healthy appearance.
Test articles were made up at 10× test concentration in a maximum DMSO concentration of 10% (final assay concentration maximal 1% DMSO) and added to the cell plates in volumes of 10 μl for 96 well plates and 5 μl for 384 well plates. For cell control and virus control wells the test article solvent only was added. Virus or assay media for cytotoxicity test wells and media/cell control wells was added immediately after test articles at an MOI of 0.5, 40 or 20 μl for 96 and 384 well plates respectively. Virus suspension was prepared by thawing RSV A2 frozen stocks and diluting to the required concentration of plaque forming units in assay media on ice.
Cell plates were further incubated inside a humid chamber for 72 h p.i at 37° C./5% CO2. After the incubation period cells were observed under the microscope to check for characteristic cytopathic effect in virus control wells and healthy cells in the cell control wells. After plates were adjusted to room temperature 20/40 μl Viral ToxGlo (Promega) was added to each well of the 384/96 well cell plates. Plates were incubated at room temperature, protected from light on a plate rocker for 20 minutes before measuring the luminescence on a spectrophotometer (Biotek Synergy HTX).
RSV inhibition was calculated as percentage of cytopathic effect inhibition relative to the virus control and cytotoxicity as percentage of cell survival relative to cell control wells. This allowed EC50 values to be calculated for each test article where a virus inhibition or cytotoxic dose response was identified.
(Protection from cytopathic effect is a common read-out in antiviral testing.)
For the compound `O=C(NCCC1CCCC1)c1cccc(Nc2ccc(OCc3ccccn3)cc2C2CC2)c1` [Compound 60, N-(2-cyclopentylethyl)-3-((2-cyclopropyl-4-(pyridin-2-ylmethoxy)phenyl)amino)benzamide], the EC50 (usually the concentration that produces a half-maximal response) was 67 nM.
The value for `Cc1cc(OCc2ccccn2)ccc1Nc1cccc(C(=O)NCCCC(C)C)c1` [Compound 72, 3-((2-methyl-4-(pyridin-2-ylmethoxy)phenyl)amino)-N-(4-methylpentyl)benzamide] was 158 nM; that for `CCc1cc(OCc2ccccn2)ccc1Nc1cccc(C(=O)NCCC2CCCCC2)c1` [Compound 75, N-(2-(cyclohexyl)ethyl)-3-((2-ethyl-4-(pyridin-2-ylmethoxy)phenyl)amino)benzamide] was 25 nM.
Turning to `O=C(NCCC1CCCCC1)c1cccc(Nc2ccc(OCc3ccccn3)cc2C2CC2)c1` [Compound 76, N-(2-(cyclohexyl)ethyl)-3-((2-cyclopropyl-4-(pyridin-2-ylmethoxy)phenyl)amino)benzamide], the EC50 amounted to 14 nM.
The value for `CCCC(C)NC(=O)c1cccc(Nc2ccc(OCc3ccccn3)cc2C)c1` (centres unmarked) [Compound 77, N-(1-methylbutyl)-3-((2-methyl-4-(pyridin-2-ylmethoxy)phenyl)amino)benzamide] was 124 nM.
In the case of `CCCC(C)NC(=O)c1cccc(Nc2ccc(OCc3ccccn3)cc2CC)c1` (centres unmarked) [Compound 78, N-(1-methylbutyl)-3-((2-ethyl-4-(pyridin-2-ylmethoxy)phenyl)amino)benzamide], the EC50 worked out at 58 nM.
Turning to `O=S(=O)(NCCC1CCCCC1)c1cccc(Nc2ccc(OCc3ccccn3)cc2C2CC2)c1` [Compound 79, N-(2-(cyclohexyl)ethyl)-3-((2-cyclopropyl-4-(pyridin-2-ylmethoxy)phenyl)amino)benzenesulfonamide], the half-maximal effective concentration (EC50) is 33 nM.
For `O=C(CCC1CCCCC1)Nc1cccc(Nc2ccc(OCc3ccccn3)cc2C2CC2)c1` [Compound 80, (3-(cyclohexyl)propanamide), N-[3-([2-cyclopropyl-4-(pyridin-2-ylmethoxy)phenyl]amino)phenyl]-], the EC50 was 21 nM.
For the compound `c1ccc(COc2ccc(Nc3cccc(OCCCC4CCCCC4)c3)c(C3CC3)c2)nc1` [Compound 83, 3-(3-cyclohexylpropoxy)-N-(2-cyclopropyl-4-(pyridin-2-ylmethoxy)phenyl)aniline], the concentration giving a half-maximal response (EC50) is 9 nM.
The value for `NC(=O)c1cccc(Nc2ccc(OCc3ccccn3)cc2C2CC2)c1` [Compound 84, 3-((2-cyclopropyl-4-(pyridin-2-ylmethoxy)phenyl)amino)benzamide] was 637 nM.
`O=C(NCCC1CCCCC1)c1cccc(Nc2ccc(OCc3cccnc3)cc2C2CC2)c1` [Compound 85, N-(2-cyclohexylethyl)-3-((2-cyclopropyl-4-(pyridin-3-ylmethoxy)phenyl)amino)benzamide]: the concentration giving a half-maximal response (EC50) was found to be 8 nM.
The value for `O=C(NCCC1CCCCC1)c1cccc(Nc2ccc(OCc3ccccn3)cc2C2CC2)n1` [Compound 86, N-(2-cyclohexylethyl)-6-((2-cyclopropyl-4-(pyridin-2-ylmethoxy)phenyl)amino)picolinamide] was 567 nM; that for `O=C(NCCC1CCCCC1)c1cncc(Nc2ccc(OCc3ccccn3)cc2C2CC2)c1` [Compound 88, N-(2-cyclohexylethyl)-5-((2-cyclopropyl-4-(pyridin-2-ylmethoxy)phenyl)amino)nicotinamide] was 461 nM.
Regarding `O=C(NCCC1CCCC1)c1cccc(Nc2ccc(OCc3ccncc3)cc2C2CC2)c1` [Compound 89, N-(2-cyclopentylethyl)-3-((2-cyclopropyl-4-(pyridin-4-ylmethoxy)phenyl)amino)benzamide], the EC50 came to 140 nM.
The value for `O=C(NCCC1CCCCC1)c1ccnc(Nc2ccc(OCc3ccccn3)cc2C2CC2)c1` [Compound 90, N-(2-cyclohexylethyl)-2-((2-cyclopropyl-4-(pyridin-2-ylmethoxy)phenyl)amino)isonicotinamide] was 92 nM; that for `CC(C)(C)c1cc(OCc2ccccc2)ccc1Nc1cccc(NC(=O)CCC2CCCCC2)c1` [Compound 91, N-(3-{[4-(benzyloxy)-2-tert-butylphenyl]amino}phenyl)-3-cyclohexylpropanamide] was 2 nM.
The value for `O=C(CCC1CCCCC1)Nc1cccc(Nc2ccc(OCc3ccccc3)cc2C2=CCCC2)c1` [Compound 92, N-(3-{[4-(benzyloxy)-2-(cyclopent-1-en-1-yl)phenyl]amino}phenyl)-3-cyclohexylpropanamide] was 4 nM; that for `O=C(CCC1CCCCC1)Nc1cccc(Nc2ccc(OCc3ccccc3)cc2C2CCCC2)c1` [Compound 93, N-(3-{[4-(benzyloxy)-2-cyclopentylphenyl]amino}phenyl)-3-cyclohexylpropanamide] was 4 nM.
The value for `CSc1cc(OCc2ccccc2)ccc1Nc1cccc(NC(=O)CCC2CCCCC2)c1` [Compound 94, N-(3-{[4-(benzyloxy)-2-(methylsulfanyl)phenyl]amino}phenyl)-3-cyclohexylpropanamide] was 7 nM.
Turning to `c1ccc(COc2ccc(Nc3cccc(NCCCC4CCCCC4)c3)c(C3CC3)c2)cc1` [Compound 95, N1-[4-(benzyloxy)-2-cyclopropylphenyl]-N3-(3-cyclohexylpropyl)benzene-1,3-diamine], the EC50 was determined as 8 nM.
The value for `O=C(NCCC1CCCCC1)Nc1cccc(Nc2ccc(OCc3ccccn3)cc2C2CC2)c1` [Compound 96, 1-(2-cyclohexylethyl)-3-[3-({2-cyclopropyl-4-[(pyridin-2-yl)methoxy]phenyl}amino)phenyl]urea] was 10 nM.
`OC(CCCC1CCCCC1)c1cccc(Nc2ccc(OCc3ccccc3)cc2C2CC2)c1` (centres unmarked) [Compound 97, 1-(3-{[4-(benzyloxy)-2-cyclopropylphenyl]amino}phenyl)-4-cyclohexylbutan-1-ol]: the concentration giving a half-maximal response (EC50) is 10 nM.
The value for `O=C(CCC1CCCCC1)Nc1cccc(Nc2ccc(OCc3ccc(F)cc3)cc2C(F)(F)F)c1` [Compound 99, 3-cyclohexyl-N-[3-({4-[(4-fluorophenyl)methoxy]-2-(trifluoromethyl)phenyl}amino)phenyl]propanamide] was 13 nM.
The value for `c1ccc(COc2ccc(Nc3cccc(-n4cc(CC5CCCCC5)nn4)c3)c(C3CC3)c2)nc1` [Compound 100, N-{3-[4-(cyclohexylmethyl)-1H-1,2,3-triazol-1-yl]phenyl}-2-cyclopropyl-4-[(pyridin-2-yl)methoxy]aniline] was 16 nM; that for `CC(C)(C)c1cc(OCc2ccccc2)ccc1Nc1ccccc1C(=O)NCCC1CCCCC1` [Compound 101, 2-{[4-(benzyloxy)-2-tert-butylphenyl]amino}-N-(2-cyclohexylethyl)benzamide] was 21 nM; that for `Cc1c(NC(=O)C2(C#N)CC2)cccc1Nc1ccc(OCc2ccccn2)cc1C1CC1` [Compound 102, 1-cyano-N-[3-({2-cyclopropyl-4-[(pyridin-2-yl)methoxy]phenyl}amino)-2-methylphenyl]cyclopropane-1-carboxamide] was 22 nM.
The value for `O=C(NCCCC1CCCCC1)c1ccccc1Nc1ccc(OCc2ccccc2)cc1C1CC1` [Compound 103, 2-{[4-(benzyloxy)-2-cyclopropylphenyl]amino}-N-(3-cyclohexylpropyl)benzamide] was 24 nM; that for `O=C(NCCC1CCCC1)c1cccc(Nc2ccc(OCc3ccccc3)cc2C(F)(F)F)c1` [Compound 104, 3-{[4-(benzyloxy)-2-(trifluoromethyl)phenyl]amino}-N-(2-cyclopentylethyl)benzamide] was 29 nM; that for `Cc1c(Nc2ccc(OCc3ccccc3)cc2C2CC2)cccc1OCCCC1CCCCC1` [Compound 105, 4-(benzyloxy)-N-[3-(3-cyclohexylpropoxy)-2-methylphenyl]-2-cyclopropylaniline] was 31 nM.
As to `CC(C)CCCOc1cccc(Nc2ccc(OCc3ccccn3)cc2C2CC2)c1` [Compound 106, 2-cyclopropyl-N-{3-[(4-methylpentyl)oxy]phenyl}-4-[(pyridin-2-yl)methoxy]aniline], the half-maximal effective concentration (EC50) came out at 33 nM.
The value for `CS(=O)(=O)c1cc(OCc2ccccc2)ccc1Nc1cccc(NC(=O)CCC2CCCCC2)c1` [Compound 107, N-(3-{[4-(benzyloxy)-2-methanesulfonylphenyl]amino}phenyl)-3-cyclohexylpropanamide] was 36 nM.
The value for `Cc1c(NC(=O)C2(C(N)=O)CC2)cccc1Nc1ccc(OCc2ccccn2)cc1C1CC1` [Compound 108, N′1-[3-({2-cyclopropyl-4-[(pyridin-2-yl)methoxy]phenyl}amino)-2-methylphenyl]cyclopropane-1,1-dicarboxamide] was 41 nM.

The values above are taken from patent publication US12421206B2, “Aryl-n-aryl derivatives for treating a RNA virus infection” (ABIVAX, priority 2018, dated 2025).
